In patent US12409138B2, “Nanoparticles and nanogel drug compositions for treatment of age-related macular degeneration” (University of South Florida, priority 2019, dated 2025):

What was measured:
ARPE-19 cells [1] = assay: Wound scratch assay (cell migration, with or without VEGF165); type: cell-based, human; conditions: 1 μM, 48 h
Protocol: Wound scratch assay. Wound healing assay was performed as per the earlier reports to analyse the inhibitory effect of SM and its formulation on VEGF165 (rhVEGF; R&D Systems) induced angiogenesis. ARPE-19 cells were seeded and allowed to grow to attain 80% confluency in 24-well plates. Carefully, wounds were made by pipette tip to take out monolayer of cells as a strip. The wounds were created typically with around 300 μm of the average size and […] variation in wound width was considered for the study. To ensure removal of partially adhered cells on the plates due to creation of the wound, they were washed with sterile PBS twice. The cell wells were then treated with at 1 μM and 10 μM concentrations of SM-NP gel formulations in DMEM F12 media without FBS. Cell migration was observed by using ZEISS inverted phase contrast microscope, (Axicom 506 mono) with Axicom MRCS-ZEN2pro software and quantified by calculating the area covered by the cells because of cell migration from the wound edges towards the center area of the wound using ImageJ software. To check the effect of presence of VEGF on the cell migration, two wells were also kept at above two concentrations and treated with VEGF simultaneously. […] The width of the wound was measured using images captured by microscope. […]

[2] = In vitro drug release study by dialysis; type: physicochemical
Protocol: In vitro drug release study. The in vitro drug release study for SM from nanoparticles and nanoparticles incorporated thermo-reversible gel were compared with plain drug solution and was studied at 37°±0.5° C. In short, drug solution in DMSO, SM-NPs and SM-NP Gel having equivalent quantity of SM (1 mg/ml) were placed in dialysis tubes (MWCO 10 KDa) and sealed tightly by using dialysis closures. Then, the dialysis tubes were immersed in 20 ml of PBS (pH 7.4) as a release medium comprising of 0.1% Tween 80 (v/v). Release medium was allowed to stir at 150 rpm and the 0.5 mL of samples were withdrawn at 0.25, 0.5, 1, 2, 4, 6, 12, 24, 48, 72, 96, 120, 144 and 168 h. The volumes were made up with fresh release medium after each sampling. The concentration of SM in a sample was determined by UV spectroscopy at 432 nm after dilution with methanol in ratio of 1:10. For all the formulations, in vitro release tests were carried out in triplicate and results were described as cumulative quantity of drug released at each point of time.

[3] = system: VEGF-A secretion in ARPE-19 cells; assay: VEGF inhibition using ELISA; type: cell-based, human
Protocol: VEGF inhibition using ELISA. Human retinal pigmented epithelium ARPE-19 cells were seeded in 24 well plate at density of 5×10^4 cells/mL and allowed to grow for 24 h in DMEM F12 medium supplemented with 10% FBS and were incubated at 37° C., 5% CO2 atmosphere till wells became confluent. After 24 h, the culture media was replaced by incomplete media which is DMEM F12 without FBS and treatment with formulation was given. […] Quantification of the VEGF secretion in the culture media was done by ELISA method using Human VEGF-A Platinum ELISA Kit following manufacturer's instructions. The protein content in the cells were estimated using Pierce BCA protein assay kit after collecting cell lysate and the by normalizing VEGF secretion to total protein. Samples were read using ELISA plate reader (Spectra MAX 190, Molecular Devices, California, USA) at 450 nm absorbance and 550 nm and difference was recorded, followed by calculating inhibition of VEGF secretion using standard curve.

ARPE-19 cells [4] = assay: Cytotoxicity study (MTT assay); type: cell-based, human; conditions: 20 μM
Protocol: Cell culture. ARPE-19, a human retinal pigment epithelial cell line ([…]) cells were grown and maintained in DMEM F12 medium supplemented with 10% v/v FBS and 1% 10,000 U/ml penicillin-streptomycin antibiotics. The cell cultures were allowed to incubate at 37° C. temperature, in a humidified atmosphere with 5% CO2. Cytotoxicity study. The MTT assay was carried out to determine cytotoxicity of SM-NPs as well as in SM-NPs gel in comparison with pure drug solution, in ARPE-19, human retinal pigment epithelial cells. The cells were seeded in 200 μl of DMEM F12 supplemented with 10% FBS in a 96 well plate (Corning, N.Y.) at a seeding density of 5000 cells/well and incubated for 24 h at 37° C., 5% CO2 atmosphere to allow attachment and growth of the cells. SM drug solution and formulations with various concentrations of SM were prepared by first dissolving SM in DMSO and then diluting them with DMEM F12 medium without FBS. The cells were treated with formulations after 24 h of seeding and incubated for […]. […] Intensity of color produced after dissolution of formazan crystals was quantified by measuring optical density at 595 nm wavelength by microtiter plate reader (Spectra MAX 190, Molecular Devices, California, USA). […] Cell viability were calculated graphically from concentration vs viability curves, considering the optical density of control well as 100% viable.

For `CCN(CC)CCNC(=O)c1c(C)[nH]c(/C=C2\C(=O)Nc3ccc(F)cc32)c1C` [SM solution, Sunitinib malate], the Wound recovery (ARPE-19 cells [1]) was 80±1.8%, the Release kinetics model [2] was “first order drug release” and the “Cumulative drug release at 1 hr” value ([2]; PBS pH 7.4, 0.1% Tween 80, 37° C.) was 80%±2.5%. The “VEGF secretion” value ([3]; 12 hr, compared to the NPs treatment) was “noticeably reduced”, the VEGF expression levels ([3]; 48 h, 10 μM SM equivalent, control = 100%) was 90% and the activity at 10 µM ([3]; Homo sapiens, ARPE-19, 12 h, 10 μM SM equivalent, control = 100%, read-out: Inhibition of VEGF levels) was 56 ± 3%. It also gave a Viability lost (ARPE-19 cells [4]; 24 h) of 25% and a Viability lost (ARPE-19 cells [4]; 48 h) of 30%.
